Reference: US20220386606A1, “SPECIFICALLY SUBSTITUTED 3-PHENYL-5-SPIROCYCLOPENTYL-3-PYRROLIN-2-ONES AND THEIR USE AS HERBICIDES” (Bayer Aktiengesellschaft, priority 2019, published 2022)

Legend:
LOLRI [1] = test: Pre-emergence herbicidal action against LOLRI (Table 8, titled post-emergence at 320 g/ha); assay type: in vivo, Lolium rigidum; conditions: table stands in the pre-emergence section
How it was run: (§1)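 Pots of sandy loam with covered seeds receive a surface application of compound (WP or EC; aqueous, 600 to 800 L/ha, 0.2% wetting agent) before emergence. Under good greenhouse growth conditions, percent damage is judged by eye at 3 weeks against untreated controls.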

MATIN = test: Pre-emergence herbicidal action against MATIN; assay type: in vivo; conditions: 320 g/ha
From the text: (§2) Seeds of monocotyledonous and dicotyledonous weed plants and crop plants are laid out in sandy loam soil in wood-fiber pots and covered with soil. The compounds of the invention, formulated in the form of wettable powders (WP) or as emulsion concentrates (EC), are then applied to the surface of the covering soil as aqueous suspension or emulsion at a water application rate equating to 600 to 800 L/ha with addition of 0.2% wetting agent.
(§3) After the treatment, the pots are placed in a greenhouse and kept under good growth conditions for the trial plants. The damage to the test plants is scored visually after a test period of 3 weeks by comparison with untreated controls (herbicidal activity in percent (%): 100% activity=the plants have died, 0% activity=like control plants).

DIGSA [2] = test: Post-emergence herbicidal action against DIGSA; assay type: in vivo, Digitaria sanguinalis; conditions: 80 g/ha, visual assessment about 3 weeks after treatment vs untreated controls
How it was run: (§4)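 Plants at the one-leaf stage receive a foliar spray of the formulated compound, with a 600 to 800 l/ha water rate and 0.2% wetting agent. Percent activity is judged by eye after roughly 3 weeks in the greenhouse.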

ECHCG [3] = test: Pre-emergence herbicidal action against ECHCG; assay type: in vivo, Echinochloa crus-galli; conditions: 320 g/ha, scored visually after 3 weeks vs untreated controls
How it was run: as §1

VIOTR = test: Pre-emergence herbicidal action against VIOTR; assay type: in vivo, Viola tricolor; conditions: 320 g/ha
How it was run: as §1

AVEFA [4] = test: Pre-emergence herbicidal action against AVEFA; assay type: in vivo, Avena fatua; conditions: 320 g/ha, scored visually after 3 weeks vs untreated controls
How it was run: as §1

ECHCG [5] = test: Post-emergence herbicidal action against ECHCG; assay type: in vivo, Echinochloa crus-galli; conditions: 80 g/ha, visual assessment about 3 weeks after treatment vs untreated controls
How it was run: as §4

LOLRI [6] = test: Post-emergence herbicidal action against LOLRI; assay type: in vivo, Lolium rigidum; conditions: 80 g/ha, visual assessment about 3 weeks after treatment vs untreated controls
How it was run: as §4

ALOMY [7] = test: Pre-emergence herbicidal action against ALOMY; assay type: in vivo, Alopecurus myosuroides; conditions: 320 g/ha, scored visually after 3 weeks vs untreated controls
How it was run: as §1

AVEFA [8] = test: Post-emergence herbicidal action against AVEFA; assay type: in vivo, Avena fatua; conditions: 80 g/ha, visual assessment after about 3 weeks
How it was run: as §4

DIGSA [9] = test: Pre-emergence herbicidal action against DIGSA; assay type: in vivo, Digitaria sanguinalis; conditions: 320 g/ha, scored visually after 3 weeks vs untreated controls
How it was run: as §1

SETVI [10] = test: Pre-emergence herbicidal action against SETVI; assay type: in vivo, Setaria viridis; conditions: 320 g/ha, scored visually after 3 weeks vs untreated controls
How it was run: as §1

ALOMY [11] = test: Post-emergence herbicidal action against ALOMY; assay type: in vivo, Alopecurus myosuroides; conditions: 80 g/ha, visual assessment after about 3 weeks
How it was run: as §4

ABUTH = test: Post-emergence herbicidal action against ABUTH; assay type: in vivo, Abutylon threophrasti; conditions: 80 g/ha, visual assessment about 3 weeks after treatment vs untreated controls
Procedure: Seeds of monocotyledonous and dicotyledonous weed and crop plants are laid out in sandy loam soil in wood-fiber pots, covered with soil and cultivated in a greenhouse under good growth conditions. 2 to 3 weeks after sowing, the test plants are treated at the one-leaf stage. The compounds of the invention, formulated in the form of wettable powders (WP) or as emulsion concentrates (EC), are then sprayed onto the green parts of the plants as aqueous suspension or emulsion at a water application rate equating to 600 to 800 l/ha with addition of 0.2% wetting agent. After the test plants have been left to stand in the greenhouse under optimal growth conditions for about 3 weeks, the action of the preparations is assessed visually in comparison to untreated controls (herbicidal action in percent (%): 100% activity=the plants have died, 0% activity=like control plants).

SETVI [12] = test: Post-emergence herbicidal action against SETVI; assay type: in vivo, Setaria viridis; conditions: 80 g/ha, visual assessment about 3 weeks after treatment vs untreated controls
How it was run: as §4

POLCO = test: Pre-emergence herbicidal action against POLCO; assay type: in vivo, Polygonum convolvulus; conditions: 320 g/ha
From the text: as §2, §3

AMARE = test: Pre-emergence herbicidal action against AMARE; assay type: in vivo, Amaranthus retroflexus; conditions: 320 g/ha
How it was run: as §1

VERPE = test: Pre-emergence herbicidal action against VERPE; assay type: in vivo, Veronica persica; conditions: 320 g/ha
How it was run: as §1

Row | Compound | Pre-emergence herbicidal action against LOLRI in % (LOLRI [1]) | Pre-emergence action against MATIN in % (MATIN) | Post-emergence action against DIGSA in % (DIGSA [2]) | Pre-emergence action against ECHCG in % (ECHCG [3]) | Pre-emergence action against VIOTR in % (VIOTR) | Pre-emergence action against AVEFA in % (AVEFA [4]) | Post-emergence action against ECHCG in % (ECHCG [5]) | Post-emergence action against LOLRI in % (LOLRI [6]) | Pre-emergence action against ALOMY in % (ALOMY [7]) | Post-emergence action against AVEFA in % (AVEFA [8]) | Pre-emergence action against DIGSA in % (DIGSA [9]) | Pre-emergence action against SETVI in % (SETVI [10]) | Post-emergence action against ALOMY in % (ALOMY [11]) | Post-emergence action against ABUTH in % (ABUTH) | Post-emergence action against SETVI in % (SETVI [12]) | Pre-emergence action against POLCO in % (POLCO) | Pre-emergence action against AMARE in % (AMARE) | Pre-emergence action against VERPE in % (VERPE)
1 | CC#Cc1cc(C)c(C2=C(OC(=O)OCC)C3(CCC(COCC)C3)NC2=O)c(F)c1 (centres unmarked) [Example P-53] | 100% | 90% | 100% | 100% | 80% | 90% | 100% | 100% | 100% | 90% | 100% | 100% | 100% | 80% |  |  |  | 
2 | CC#Cc1cc(Br)c(C2=C(OC(=O)OCC)C3(CCC(COCC)C3)NC2=O)c(OCC)c1 (centres unmarked) [Example P-89] | 100% |  | 90% | 100% | 80% | 100% | 100% | 90% | 100% |  | 100% | 100% | 100% |  | 100% | 100% |  | 
3 | CC#Cc1cc(Br)c(C2=C(OC(=O)C(C)C)C3(CCC(COC)C3)NC2=O)c(OC)c1 (centres unmarked) [Example P-04] | 100% | 90% | 100% |  | 100% | 100% | 100% | 100% | 100% |  | 100% | 100% | 100% | 80% | 100% |  | 80% | 90%
4 | CC#Cc1cc(Br)c(C2=C(O)C3(CCC(COC)C3)NC2=O)c(OCC)c1 (centres unmarked) [Example I-69] | 100% |  | 90% | 100% | 90% | 90% | 100% | 100% | 100% |  | 100% | 100% | 100% |  |  | 100% |  | 80%
5 | CC#Cc1cc(C)c(C2=C(OC(=O)OCC)C3(CCC(COCCOC)C3)NC2=O)c(Cl)c1 (centres unmarked) [Example P-76] | 100% |  | 90% | 100% | 100% | 100% | 100% | 100% | 100% | 90% | 100% | 100% | 100% |  | 100% | 100% | 100% | 100%
